Results from patent US12150930B2 (BDR Pharmaceuticals Int'l Pvt. Ltd., priority 2022, dated 2024).

What was measured:
[1] = cited from earlier work
[2] = API solubility study in solubilizers/solvents/co-solvents (formulation trials); type: physicochemical; details: ethanol added after addition of API
Text: During the selection of excipients for formulation of Enzalutamide oral solution, first it is required to select the excipients which are not covered by patent of Enzalutamide capsules and also excipients need to meet IIG limits and useful for product development.
In the present invention selection of Solubilizers based on different trials which are like Labrafac Lipophile WL-1349, Labrafil M1944 Cs, Maisine CC, Kolliphor RH 40, Tween 80, Castor Oil, Migloyl 812 etc.
Further, here in the present invention selection of Co-solvents also based on trials and experiments which are Propylene glycol, Polyethylene glycol 400, Poly ethylene glycol 200, Ethanol, Glycerine, Maisine CC etc.
Based on the API solubility study combination of Kolliphor RH 40 with Ethanol and Polyethylene 400 was taken for further study. […]
Process for the Preparation: • 1. Dispensed quantity of Polyoxyl 40 hydrogenated castor oil was taken and started heating with maintained temperature of 45° C. of product. Further, Dispensed quantity of glyceryl monolinoleate was added to material of above step under stirring mixing/homogenization process. • 2. […] Further, then dispensed quantity of Ethanol was added to above step of material and continued process of stirring/homogenization then added dispensed quantity of propylene glycol and continued the process till Enzalutamide was dissolved. […]

CACO2 monolayers = details: across CACO2 monolayers; cited from earlier work
[3] = Stability of enzalutamide standard solution; type: physicochemical; details: 25° C., in ACN diluted with dissolution medium
Experimental: In that, 25 ml of ACN was dissolved and diluted with ACN to volume. From this solution, 2 ml of solution was transferred to a 100 ml volumetric flask and diluted with dissolution medium to volume. The standard solution was found stable at 25° C. for 27 h. Sample solution was prepared by adding a 5 ml sample of the present invention in 900 ml of dissolution medium. Further, 2.0 ml of this solution was diluted with 100 ml of dissolution medium.

CNC(=O)c1ccc(N2C(=S)N(c3ccc(C#N)c(C(F)(F)F)c3)C(=O)C2(C)C)cc1F [Enzalutamide]
Biopharmaceutics Classification System (BCS) class ([1]; low solubility and high permeability): Class 2 | effect of pH on enzalutamide solubility ([1]; physiological pH range): not affected by pH | API solubilized during procedure [2]: approx. 80% | mean apparent permeability coefficient (CACO2 monolayers): 31 ×10⁻⁶ cm/s | time for which the standard solution was found stable [3]: 27 h
